Data on ten compounds can be found in patent US10981894B2, “Melanocortin subtype-2 receptor (MC2R) antagonists and uses thereof” (Crinetics Pharmaceuticals, Inc., priority 2018, dated 2021).

The experiment has as its target hMC2 receptor (Homo sapiens, UniProt Q01718). Nature of the experiment: hMC2 membrane binding assay ([125I]ACTH (1-39) Tyr23, SPA). Conditions: crude hMC2R membranes from CRE-bla-CHO-K1 cells expressing hMC2 receptor and hMRAP; [125I]ACTH (1-39) Tyr23 0.2 nM; 1.5 hours at room temperature; read-out: MC2R binding potency. On the set-up: scale not given here. An outline of the steps:
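Ki comes from non-linear regression of SPA scintillation counts. Displacement of 0.2 nM [125I]ACTH(1-39) Tyr23 by compound dose series (usually 0–10,000 nM final) ran 1.5 h at room temperature. Membranes came from CHO-K1 CRE-bla cells stably expressing hMC2R plus hMRAP, bead-coupled in pH 7.4 buffer with 0.2% BSA.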

Chain of hMC2 receptor (Q01718 whole entry): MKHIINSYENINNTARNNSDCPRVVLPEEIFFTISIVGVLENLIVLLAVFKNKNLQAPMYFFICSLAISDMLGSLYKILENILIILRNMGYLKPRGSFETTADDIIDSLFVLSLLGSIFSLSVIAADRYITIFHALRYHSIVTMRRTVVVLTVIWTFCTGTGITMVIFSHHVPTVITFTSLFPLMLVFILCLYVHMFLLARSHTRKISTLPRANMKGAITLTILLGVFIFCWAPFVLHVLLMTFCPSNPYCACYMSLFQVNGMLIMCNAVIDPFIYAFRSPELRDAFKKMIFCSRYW
Chain of hMC2 receptor (Q8TCY5 whole entry partner): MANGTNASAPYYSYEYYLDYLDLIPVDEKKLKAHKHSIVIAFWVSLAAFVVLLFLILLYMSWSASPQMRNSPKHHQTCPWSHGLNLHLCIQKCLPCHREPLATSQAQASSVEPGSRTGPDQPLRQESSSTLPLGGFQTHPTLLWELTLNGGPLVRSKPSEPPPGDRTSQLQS

Take `CCOc1ncccc1-c1ccc(N2CCN(C(=O)c3ccc(OC)nc3C(F)(F)F)C[C@H]2CC)c(C(=O)NC[C@@H]2CCN2)n1` [Compound 1-244, N-{[(2S)-azetidin-2-yl]methyl}-2′-ethoxy-5-[(2R)-2-ethyl-4-[6-methoxy-2-(trifluoromethyl)pyridine-3-carbonyl]piperazin-1-yl]-[2,3′-bipyridine]-6-carboxamide]: the Ki is less than 10 nM.

On to `CCOc1ncccc1-c1ccc(N2CCN(C(=O)c3ccc(C)cc3Cl)C[C@H]2CC)c(C(=O)N[C@@H]2CCNC2)c1F` [Compound 1-110, 6-[(2R)-4-(2-chloro-4-methylbenzoyl)-2-ethylpiperazin-1-yl]-3-(2-ethoxypyridin-3-yl)-2-fluoro-N-[(3R)-pyrrolidin-3-yl]benzamide], for which the Ki is less than 10 nM.

In the case of `CCOc1ncccc1-c1ccc(N2CCN(C(=O)C3(C(F)(F)F)CCCC3)C[C@H]2CC)c(C(=O)NCC2CN(C)C2)n1` [Compound 1-313, 2′-ethoxy-5-[(2R)-2-ethyl-4-[1-(trifluoromethyl)cyclopentanecarbonyl]piperazin-1-yl]-N-[(1-methylazetidin-3-yl)methyl]-[2,3′-bipyridine]-6-carboxamide], the Ki is less than 10 nM.

Consider `CCOc1ncccc1-c1ccc(N2CCN(C(=O)c3ccc(Cl)cc3C(F)(F)F)C[C@H]2CC)c(C(=O)NCCN2CC(F)C2)n1` [Compound 1-357, 5-[(2R)-4-[4-chloro-2-(trifluoromethyl)benzoyl]-2-ethylpiperazin-1-yl]-2′-ethoxy-N-[2-(3-fluoroazetidin-1-yl)ethyl]-[2,3′-bipyridine]-6-carboxamide], for which the Ki is less than 10 nM.

Turning to `CCOc1ncccc1-c1ccc(N2CCN(C(=O)c3ccc(F)cc3C(F)(F)F)C[C@H]2CC)c(C(=O)N[C@@H]2CCNC2)n1` [Compound 1-266, 2′-ethoxy-5-[(2R)-2-ethyl-4-[4-fluoro-2-(trifluoromethyl)benzoyl]piperazin-1-yl]-N-[(3R)-pyrrolidin-3-yl]-[2,3′-bipyridine]-6-carboxamide], the Ki is less than 10 nM.

`CCOc1ncccc1-c1ccc(N2CCN(C(=O)OC(C(C)(C)C)C(F)(F)F)C[C@H]2CC)c(C(=O)N[C@@H]2CCN(C)C2)n1` (stereo partly drawn) [Compound 1-376, 1,1,1-trifluoro-3,3-dimethylbutan-2-yl (3R)-4-(2′-ethoxy-6-{[(3R)-1-methylpyrrolidin-3-yl]carbamoyl}-[2,3′-bipyridin]-5-yl)-3-ethylpiperazine-1-carboxylate]: the Ki was less than 10 nM.

`CCOc1ncccc1-c1ccc(N2CCN(C(=O)C34CCC(CC3)C4(C)C)C[C@H]2CC)c(C(=O)N[C@@H]2CCNC2)n1` [Compound 1-314, 5-[(2R)-4-{7,7-dimethylbicyclo[2.2.1]heptane-1-carbonyl}-2-ethylpiperazin-1-yl]-2′-ethoxy-N-[(3R)-pyrrolidin-3-yl]-[2,3′-bipyridine]-6-carboxamide]: the Ki is less than 10 nM.

For `CCOc1ccccc1-c1ccc(N2CCN(C(=O)c3ccc(Cl)cc3C(F)(F)F)C[C@H]2CC)c(C(=O)N[C@@H]2CCNC2)n1` [Compound 1-209, 3-[(2R)-4-[4-chloro-2-(trifluoromethyl)benzoyl]-2-ethylpiperazin-1-yl]-6-(2-ethoxyphenyl)-N-[(3R)-pyrrolidin-3-yl]pyridine-2-carboxamide], the Ki was less than 10 nM.

As for `CCOc1ncccc1-c1ccc(N2CCN(C(=O)c3ccc(Cl)cc3N3CCNCC3)C[C@H]2CC)c(C(=O)N[C@@H]2CCNC2)c1` [Compound 1-90, 2-[(2R)-4-[4-chloro-2-(piperazin-1-yl)benzoyl]-2-ethylpiperazin-1-yl]-5-(2-ethoxypyridin-3-yl)-N-[(3R)-pyrrolidin-3-yl]benzamide], the Ki is less than 10 nM.

For the compound `CCOc1ncccc1-c1ccc(N2CCN(C(=O)c3ccc(Cl)cc3C(F)(F)F)C[C@H]2CC)c(C(=O)NC[C@H]2CCN2C)c1` [Compound 1-228, 2-[(2R)-4-[4-chloro-2-(trifluoromethyl)benzoyl]-2-ethylpiperazin-1-yl]-5-(2-ethoxypyridin-3-yl)-N-{[(2R)-1-methylazetidin-2-yl]methyl}benzamide], the Ki is less than 10 nM.
